Test [1] relates to T cells from luciferase+C57/BL6 mice. The test is described as follows: T cell proliferation in short-term culture with plate bound anti-CD3 antibody and IL-2. The class given is cell-based. As for the experimental part: T cells from luciferase+C57/BL6 mice were harvested and cultured in 96-well plate with 1 μg/ml anti-CD3 antibody and 30 U/ml IL-2 in the presence of original VIPhyb, Ant-1, Ant-2, Ant-3, Ant-4, Ant-5, Ant-6, Ant-7 or Ant-8 at 1 μM.
T cells from luciferase+C57/BL6 mice were harvested and cultured in 96-well plate with either 0.5 μg/ml or 1 μg/ml anti-CD3 antibody and 30 U/ml IL-2 in the presence of original VIPhyb or Ant-8 at 0.5 μM, 1 μM or 3 μM.
The peptides (SEQ ID NO: 3-10 in FIG. 1) were added to short-term cultures of luciferase positive T-cells cultured in the presence of plate bound anti CD3 antibody in 96 well plates. The concentration of anti-CD3 antibody was either 0.5 mcg per ml or 1 mcg per ml. The T-cells from luciferase transgenic mice were added in the presence of low-dose IL-2 and 0.5 micromolar, 1 micromolar, or 3 micromolar concentrations of the original VIPhyb peptide or the alternative ANT-1 to ANT-8 peptide sequences were added.

For test [2], the system named is T cells from Chronic lymphocytic leukemia (CLL) donors. The test is described as follows: Ex vivo expansion of T cells with anti-CD3/28 beads and IL-2. Type of test: cell-based. The following applies: anti-CD3/28 beads and 30 U/mL IL-2.
In another test the test system is acute leukemia. The following applies: Oncoimmunology, 2017, 6(5):e1304336; cited from earlier work.

For the sequence “KPRRPYTDNYTRLRKQMAVKKYLNLILN [ANT-8, VIPhyb variant with S to L substitution at position 25]”, in test [1] (lower anti-CD3 concentration (0.5 mcg per ml), compared to control cultures with plate bound anti-CD3 and no added peptides), the “T-cell proliferation using lower concentrations of anti-CD3” value is “more modest and not significantly different from control cultures”. For the same sequence, in test [1] (overall conclusion from the T-cell proliferation cultures), the “antagonist activity compared to the native VIPhyb” value was “improved antagonist activity”. Further, the “T-cell proliferation at 24 hours” value in test [1] (peptide at 0.5, 1 and 3 micromolar, compared to the original VIPhyb peptide at the same concentrations) is “enhanced T-cell proliferation”. In test [2], the “yields of T cells during ex vivo expansion” value is given as “enhance yields of T cells”.
Regarding “KPRRPYTDNYTRLRKQMAVKKYLNSILN [VIPhyb, chimeric peptide VIP antagonist; six N-terminal amino acids of native VIP replaced]”, the “autologous anti-leukemia T cell response” value in the test on acute leukemia was “enhances the autologous anti-leukemia T cell response”.

The record behind these values is patent US12098180B2, “Compositions and uses of vasoactive intestinal peptide (VIP) antagonists” (EMORY UNIVERSITY, priority 2018, dated 2024).
